Reference: ChEMBL document CHEMBL1201861, “Genomics of Drug Sensitity in Cancer screening data, Wellcome Trust Sanger Institute”

Key:
[1] = tested on: K052; assay: cells; type: functional, cell-based, Homo sapiens; conditions: Homo sapiens, K052;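 further: Read-out from a cell viability assay, IC50 reflecting suppression of K052 cell growth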
Description: SANGER: Inhibition of human K052 cell growth in a cell viability assay.

[2] = tested on: TUR; assay: cells; type: functional, cell-based, Homo sapiens; conditions: Homo sapiens, TUR;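 further: growth inhibition of human TUR cells, read out with a cell viability assay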
Description: SANGER: Inhibition of human TUR cell growth in a cell viability assay.

[3] = tested on: SNU-16; assay: cells; type: functional, cell-based, Homo sapiens; conditions: Homo sapiens, SNU-16;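 further: growth inhibition of human SNU-16 cells, determined with a cell viability readout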
Description: SANGER: Inhibition of human NCI-SNU-16 cell growth in a cell viability assay.

[4] = tested on: CESS; assay: SANGER: Inhibition of human CESS cell growth in a cell viability assay.; type: functional, cell-based; conditions: Homo sapiens, CESS
[5] = tested on: NB7; assay: cells; type: functional, cell-based, Homo sapiens; conditions: Homo sapiens, NB7;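 further: growth inhibition of NB7 cells, read out with a cell viability assay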
Description: SANGER: Inhibition of human NB7 cell growth in a cell viability assay.

[6] = tested on: RPMI-6666; assay: cells; type: functional, cell-based, Homo sapiens; conditions: Homo sapiens, RPMI-6666
Description: SANGER: Inhibition of human RPMI-6666 cell growth in a cell viability assay.

[7] = tested on: SNU-C1; assay: cells; type: functional, cell-based, Homo sapiens; conditions: Homo sapiens, SNU-C1;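 further: growth inhibition of SNU-C1 human cells, read out by a cell viability assay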
Description: SANGER: Inhibition of human SNU-C1 cell growth in a cell viability assay.

[8] = tested on: NCI-H719; assay: cells; type: functional, cell-based, Homo sapiens; conditions: Homo sapiens, NCI-H719;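 further: growth inhibition of the cultured cell line, read out with a viability assay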
Description: SANGER: Inhibition of human NCI-H719 cell growth in a cell viability assay.

[9] = tested on: NCI-H345; assay: cells; type: functional, cell-based, Homo sapiens; conditions: Homo sapiens, NCI-H345;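 further: growth inhibition of NCI-H345 cells measured with a cell viability assay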
Description: SANGER: Inhibition of human NCI-H345 cell growth in a cell viability assay.

[10] = tested on: NCI-H2141; assay: cells; type: functional, cell-based, Homo sapiens; conditions: Homo sapiens, NCI-H2141;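 further: growth inhibition of human NCI-H2141 cells, read out with a cell viability assay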
Description: SANGER: Inhibition of human NCI-H2141 cell growth in a cell viability assay.

[11] = tested on: NCI-H889; assay: cells; type: functional, cell-based, Homo sapiens; conditions: Homo sapiens, NCI-H889;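 further: cell growth inhibition of the cell line, read out with a viability assay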
Description: SANGER: Inhibition of human NCI-H889 cell growth in a cell viability assay.

[12] = tested on: IM-9; assay: SANGER: Inhibition of human IM-9 cell growth in a cell viability assay.; type: functional, cell-based; conditions: Homo sapiens, IM-9
[13] = tested on: MDA-MB-453; assay: cells; type: functional, cell-based, Homo sapiens; conditions: Homo sapiens, MDA-MB-453
Description: SANGER: Inhibition of human MDA-MB-453 cell growth in a cell viability assay.

[14] = tested on: NCI-H650; assay: cells; type: functional, cell-based, Homo sapiens; conditions: Homo sapiens, NCI-H650;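 further: growth inhibition of NCI-H650 cells, read out by a viability assay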
Description: SANGER: Inhibition of human NCI-H650 cell growth in a cell viability assay.

[15] = tested on: NCI-H2405; assay: cells; type: functional, cell-based, Homo sapiens; conditions: Homo sapiens, NCI-H2405;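 further: growth inhibition of the human cell line, read out with a cell viability assay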
Description: SANGER: Inhibition of human NCI-H2405 cell growth in a cell viability assay.

[16] = tested on: CHL-1; assay: cells; type: functional, cell-based, Homo sapiens; conditions: Homo sapiens, CHL-1;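 further: cell growth inhibition, read out with a cell viability assay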
Description: SANGER: Inhibition of human CHL-1 cell growth in a cell viability assay.

[17] = tested on: OE19; assay: cells; type: functional, cell-based, Homo sapiens; conditions: Homo sapiens, OE19;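 further: growth inhibition of OE19 cells, measured through a cell viability read-out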
Description: SANGER: Inhibition of human OE19 cell growth in a cell viability assay.

[18] = tested on: HCC70; assay: cells; type: functional, cell-based, Homo sapiens; conditions: Homo sapiens, HCC70;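 further: cell viability assay measuring how strongly the compound suppresses proliferation of HCC70 cells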
Description: SANGER: Inhibition of human HCC70 cell growth in a cell viability assay.

[19] = tested on: SK-MEL-28; assay: cells; type: functional, cell-based, Homo sapiens; conditions: Homo sapiens, SK-MEL-28;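 further: growth inhibition of human SK-MEL-28 cells, read out with a cell viability assay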
Description: SANGER: Inhibition of human SK-MEL-28 cell growth in a cell viability assay.

[20] = tested on: A-375; assay: cells; type: functional, cell-based, Homo sapiens; conditions: Homo sapiens, A-375;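 further: growth inhibition of A375 cells, read out with a cell viability assay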
Description: SANGER: Inhibition of human A375 cell growth in a cell viability assay.

[21] = tested on: HuCCT-1; assay: cells; type: functional, cell-based, Homo sapiens, HuCCT1; conditions: Homo sapiens, HuCCT-1;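 further: growth inhibition of HuCCT-1 cells, read out by a cell viability assay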
Description: SANGER: Inhibition of human HuCCT1 cell growth in a cell viability assay.

[22] = tested on: 23132-87; assay: cells; type: functional, cell-based, Homo sapiens; conditions: Homo sapiens
Description: SANGER: Inhibition of human 23132-87 cell growth in a cell viability assay.

[23] = tested on: CAL-54; assay: cells; type: functional, cell-based, Homo sapiens; conditions: Homo sapiens, CAL-54;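 further: growth inhibition of CAL-54 cells, read out by a viability measurement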
Description: SANGER: Inhibition of human CAL-54 cell growth in a cell viability assay.

[24] = tested on: J82; assay: cells; type: functional, cell-based, Homo sapiens; conditions: Homo sapiens, J82;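 further: growth inhibition of J82 cells, read out with a cell viability assay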
Description: SANGER: Inhibition of human J82 cell growth in a cell viability assay.

[25] = tested on: NCI-H1703; assay: cells; type: functional, cell-based, Homo sapiens; conditions: Homo sapiens, NCI-H1703;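 further: growth inhibition of NCI-H1703 cells, read out via a cell viability assay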
Description: SANGER: Inhibition of human NCI-H1703 cell growth in a cell viability assay.

[26] = tested on: C-33-A; assay: cells; type: functional, cell-based, Homo sapiens; conditions: Homo sapiens, C-33-A;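 further: cell viability assay measuring growth inhibition of C-33-A cells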
Description: SANGER: Inhibition of human C-33-A cell growth in a cell viability assay.

[27] = tested on: DMS-273; assay: cells; type: functional, cell-based, Homo sapiens; conditions: Homo sapiens, DMS-273
Description: SANGER: Inhibition of human DMS-273 cell growth in a cell viability assay.

[28] = tested on: ASPC1; assay: cells; type: functional, cell-based, Homo sapiens; conditions: Homo sapiens, ASPC1;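 further: growth inhibition of AsPC-1 cells, read out with a cell viability assay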
Description: SANGER: Inhibition of human AsPC-1 cell growth in a cell viability assay.

[29] = tested on: HCC1419; assay: cells; type: functional, cell-based, Homo sapiens; conditions: Homo sapiens, HCC1419;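 further: growth inhibition of human HCC1419 cells, read out as cell viability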
Description: SANGER: Inhibition of human HCC1419 cell growth in a cell viability assay.

[30] = tested on: BEN; assay: cells; type: functional, cell-based, Homo sapiens; conditions: Homo sapiens, BEN;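 further: growth inhibition of the BEN cell line, read out with a cell viability assay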
Description: SANGER: Inhibition of human BEN cell growth in a cell viability assay.

[31] = tested on: D-542MG; assay: cells; type: functional, cell-based, Homo sapiens; conditions: Homo sapiens, D-542MG
Description: SANGER: Inhibition of human D-542MG cell growth in a cell viability assay.

[32] = tested on: DU-145; assay: cells; type: functional, cell-based, Homo sapiens; conditions: Homo sapiens, DU-145
Description: SANGER: Inhibition of human DU-145 cell growth in a cell viability assay.

[33] = tested on: RD; assay: cells; type: functional, cell-based, Homo sapiens; conditions: Homo sapiens, RD
Description: SANGER: Inhibition of human RD cell growth in a cell viability assay.

[34] = tested on: HPAF-II; assay: cells; type: functional, cell-based, Homo sapiens; conditions: Homo sapiens, HPAF-II;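 further: growth inhibition of HPAF-II cells, read out with a cell viability assay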
Description: SANGER: Inhibition of human HPAF-II cell growth in a cell viability assay.

[35] = tested on: SW1573; assay: cells; type: functional, cell-based, Homo sapiens; conditions: Homo sapiens, SW1573;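 further: growth inhibition of SW1573 cells, read out with a cell viability assay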
Description: SANGER: Inhibition of human SW1573 cell growth in a cell viability assay.

[36] = tested on: DK-MG; assay: cells; type: functional, cell-based, Homo sapiens; conditions: Homo sapiens, DK-MG;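 further: growth inhibition of DK-MG cells, read out with a cell viability assay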
Description: SANGER: Inhibition of human DK-MG cell growth in a cell viability assay.

[37] = tested on: CAL-27; assay: cells; type: functional, cell-based, Homo sapiens; conditions: Homo sapiens, CAL-27;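 further: Viability-based readout, IC50 reflecting inhibition of CAL-27 cell growth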
Description: SANGER: Inhibition of human CAL-27 cell growth in a cell viability assay.

[38] = tested on: NCI-H810; assay: cells; type: functional, cell-based, Homo sapiens; conditions: Homo sapiens, NCI-H810;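 further: IC50 reflects inhibition of cancer cell line growth, read out with a cell viability assay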
Description: SANGER: Inhibition of human NCI-H810 cell growth in a cell viability assay.

[39] = tested on: SW948; assay: cells; type: functional, cell-based, Homo sapiens; conditions: Homo sapiens, SW948;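 further: growth inhibition of SW948 cells, read out with a cell viability assay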
Description: SANGER: Inhibition of human SW948 cell growth in a cell viability assay.

[40] = tested on: LoVo; assay: cells; type: functional, cell-based, Homo sapiens; conditions: Homo sapiens, LoVo;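 further: growth inhibition of human LoVo cells, read out with a cell viability assay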
Description: SANGER: Inhibition of human LoVo cell growth in a cell viability assay.

[41] = tested on: NCI-H28; assay: cells; type: functional, cell-based, Homo sapiens; conditions: Homo sapiens, NCI-H28;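 further: growth inhibition of human NCI-H28 cells, read out as cell viability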
Description: SANGER: Inhibition of human NCI-H28 cell growth in a cell viability assay.

[42] = tested on: FTC-133; assay: cells; type: functional, cell-based, Homo sapiens; conditions: Homo sapiens, FTC-133
[43] = tested on: SCC-4; assay: cells; type: functional, cell-based, Homo sapiens; conditions: Homo sapiens, SCC-4;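 further: growth inhibition of human SCC-4 cells, read out as cell viability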
Description: SANGER: Inhibition of human SCC-4 cell growth in a cell viability assay.

[44] = tested on: MC-IXC; assay: cells; type: functional, cell-based, Homo sapiens; conditions: Homo sapiens, MC-IXC;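 further: growth inhibition of MC-IXC cells, read out with a cell viability assay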
Description: SANGER: Inhibition of human MC-IXC cell growth in a cell viability assay.

SMILES: OCCCNc1cc(-c2ccnc(Nc3cccc(Cl)c3)n2)ccn1
- IC50 [1]: > 0.256 µM
- IC50 [2]: > 0.256 µM
- IC50 [3]: 0.136 µM
- IC50 [4]: 0.0401 µM
- IC50 [5]: > 0.256 µM
- IC50 [6]: 0.0504 µM
- IC50 [7]: > 0.256 µM
- IC50 [8]: > 0.256 µM
- IC50 [9]: > 0.256 µM
- IC50 [10]: 0.102 µM
- IC50 [11]: > 0.256 µM
- IC50 [12]: > 0.256 µM

SMILES: Cc1ccc(-c2c(C(=O)CCl)n(CCCO)c3ncnc(N)c23)cc1
- IC50 [1]: > 4 µM
- IC50 [2]: > 4 µM
- IC50 [3]: > 4 µM
- IC50 [4]: > 4 µM
- IC50 [5]: > 4 µM
- IC50 [6]: 2.33 µM
- IC50 [7]: > 4 µM
- IC50 [8]: > 4 µM
- IC50 [9]: > 4 µM
- IC50 [10]: > 4 µM
- IC50 [11]: > 4 µM
- IC50 [12]: > 4 µM

SMILES: C=C(c1ccc(C(=O)O)cc1)c1cc2c(cc1C)C(C)(C)CCC2(C)C [BEXAROTENE]
- IC50 [13]: > 8 µM
- IC50 [1]: > 8 µM
- IC50 [2]: > 8 µM
- IC50 [14]: > 8 µM
- IC50 [15]: > 8 µM
- IC50 [16]: > 8 µM
- IC50 [3]: > 8 µM
- IC50 [17]: > 8 µM
- IC50 [4]: > 8 µM
- IC50 [18]: > 8 µM
- IC50 [6]: > 8 µM
- IC50 [19]: > 8 µM
- IC50 [20]: > 8 µM
- IC50 [21]: > 8 µM
- IC50 [22]: > 8 µM
- IC50 [23]: > 8 µM
- IC50 [24]: > 8 µM
- IC50 [25]: > 8 µM
- IC50 [26]: > 8 µM
- IC50 [27]: > 8 µM
- IC50 [28]: > 8 µM
- IC50 [29]: > 8 µM
- IC50 [7]: > 8 µM
- IC50 [30]: > 8 µM
- IC50 [31]: > 8 µM
- IC50 [32]: > 8 µM
- IC50 [33]: > 8 µM
- IC50 [8]: > 8 µM
- IC50 [34]: > 8 µM
- IC50 [35]: > 8 µM
- IC50 [36]: 0.0512 µM
- IC50 [9]: > 8 µM
- IC50 [37]: > 8 µM
- IC50 [10]: > 8 µM
- IC50 [38]: > 8 µM
- IC50 [39]: > 8 µM
- IC50 [40]: 5.92 µM
- IC50 [41]: > 8 µM
- IC50 [42]: > 8 µM
- IC50 [11]: > 8 µM
- IC50 [43]: > 8 µM
- IC50 [44]: 7.97 µM
- IC50 [12]: > 8 µM
